US11395490B2, “Herbicidal composition” (SYNGENTA CROP PROTECTION, LLC, priority 2005, dated 2022)

Columns and labels:
Assay type in all cases: in vivo
Conditions in all cases: 21 days after treatment
[1] = test system: Panicum millenacearum (PANMI); assay: Post-emergence test, Panicum millenacearum
Description: (§1) The herbicidal action to be expected, We, for a given combination of two herbicides can be calculated as follows (see COLBY, S. R. “Calculating synergistic and antagonistic response of herbicide combinations”. Weeds 15, pages 20-22; 1967): We=X+[Y·(100−X)/100] wherein: X=% herbicidal action in the case of treatment with active ingredient (A) using an application rate of p kg per hectare, in comparison with untreated control (=0%). Y=% herbicidal action in the case of treatment with active ingredient (B) using an application rate of q kg per hectare, in comparison with untreated control. We=expected herbicidal action (% herbicidal action in comparison with untreated control) after treatment with active ingredient (A) and active ingredient (B) at a rate of application of p+q kg of active ingredient per hectare. If the action actually observed is greater than the expected value We, there is a synergistic effect. Trial Description, Pre-Emergence Test: Monocotyledonous and dicotyledonous test plants are sown in standard soil in plastics pots. The plants tested were: Maize (ZEAMX), Ipomea purpurea (PHBPU), Euphorbia heterophylla (EPHHL), Panicum millenacearum (PANMI). Immediately after sowing, the test compounds in aqueous suspension are applied by spraying (200 litres of water/ha). (A) was formulated as a SC50, and (B1), (B2) and (B3) were formulated as WP25; 1% adjuvant crop oil concentrate (Agridex) (v/v) was added to all treatments. The compounds were applied alone and in combination as tank mixtures. The rates of application depend on the optimum concentrations determined under field conditions and greenhouse conditions. The test plants are then cultivated in a greenhouse under optimum conditions. Evaluation of the tests is made after 21 days (% action, 100%=plants have died, 0%=no phytotoxic action).
(§2) Trial Description Post-Emergence Test: The test plants are raised in plastics pots under greenhouse conditions as far as the 2- to 3-leaf stage. A standard soil is used as the cultivation substrate. The plants tested were: Maize (ZEAMX), Ipomea purpurea (PHBPU), Sorghum vulgare (SORVU), Euphorbia heterophylla (EPHHL), Panicum millenacearum (PANMI). At the 2- to 3-leaf stage, the herbicides are applied individually and as mixtures to the test plants. The test compounds are applied in the form of an aqueous suspension in 200 litres of water/ha. (A) was formulated as a SC50, and (B1), (B2) and (B3) were formulated as WP25; 1% adjuvant crop oil concentrate (Agridex) (v/v) was added to all treatments. The compounds were applied alone and in combination as tank mixtures. The rates of application depend on the optimum concentrations determined under field conditions and greenhouse conditions. Evaluation of the tests is made after 21 days (% action, 100%=plants have died, 0%=no phytotoxic action).

Maize (ZEAMX) [2] = assay: Pre-emergence test, Maize
Description: as §1

Sorghum vulgare (SORVU) = assay: Post-emergence test, Sorghum vulgare
Description: as §1, §2

[3] = test system: Panicum millenacearum (PANMI); assay: Pre-emergence test, Panicum millenacearum
Description: as §1

Ipomea purpurea (PHBPU) [4] = assay: Pre-emergence test, Ipomea purpurea
Description: as §1

Ipomea purpurea (PHBPU) [5] = assay: Post-emergence test, Ipomea purpurea
Description: as §1, §2

[6] = test system: Euphorbia heterophylla (EPHHL); assay: Pre-emergence test, Euphorbia heterophylla
Description: as §1

Maize (ZEAMX) [7] = assay: Post-emergence test, Maize
Description: as §1, §2

[8] = test system: Euphorbia heterophylla (EPHHL); assay: Post-emergence test, Euphorbia heterophylla
Description: as §1, §2

## Cn1nc(C(F)(F)F)c(CS(=O)(=O)C2=NOC(C)(C)C2)c1OC(F)F [(A), 3-[[[5-(difluoromethoxy)-1-methyl-3-(trifluoromethyl)-1H-pyrazol-4-yl]methyl]-sulfonyl]-4,5-dihydro-5,5-dimethyl-isoxazole]
[1]; rate 12.5 g/ha
  Observed plant damage PANMI: 0%
[1]; rate 25 g/ha
  Observed plant damage PANMI: 35%
[1]; rate 50 g/ha
  Observed plant damage PANMI: 65%
[1]; rate 100 g/ha
  Observed plant damage PANMI: 65%
[1]; rate 200 g/ha
  Observed plant damage PANMI: 75%
Maize (ZEAMX) [2]; rate 12.5 g/ha
  Observed plant damage ZEAMX: 0%
Maize (ZEAMX) [2]; rate 25 g/ha
  Observed plant damage ZEAMX: 0%
Maize (ZEAMX) [2]; rate 50 g/ha
  Observed plant damage ZEAMX: 0%
Maize (ZEAMX) [2]; rate 100 g/ha
  Observed plant damage ZEAMX: 0%
Maize (ZEAMX) [2]; rate 200 g/ha
  Observed plant damage ZEAMX: 0%
Sorghum vulgare (SORVU); rate 12.5 g/ha
  Observed plant damage SORVU: 0%
Sorghum vulgare (SORVU); rate 25 g/ha
  Observed plant damage SORVU: 0%
Sorghum vulgare (SORVU); rate 50 g/ha
  Observed plant damage SORVU: 0%
Sorghum vulgare (SORVU); rate 100 g/ha
  Observed plant damage SORVU: 0%
Sorghum vulgare (SORVU); rate 200 g/ha
  Observed plant damage SORVU: 0%
[3]; rate 12.5 g/ha
  Observed plant damage PANMI: 0%
[3]; rate 25 g/ha
  Observed plant damage PANMI: 0%
[3]; rate 50 g/ha
  Observed plant damage PANMI: 70%
[3]; rate 100 g/ha
  Observed plant damage PANMI: 100%
[3]; rate 200 g/ha
  Observed plant damage PANMI: 100%
Ipomea purpurea (PHBPU) [4]; rate 12.5 g/ha
  Observed plant damage PHBPU: 0%
Ipomea purpurea (PHBPU) [4]; rate 25 g/ha
  Observed plant damage PHBPU: 0%
Ipomea purpurea (PHBPU) [4]; rate 50 g/ha
  Observed plant damage PHBPU: 0%
Ipomea purpurea (PHBPU) [4]; rate 100 g/ha
  Observed plant damage PHBPU: 75%
Ipomea purpurea (PHBPU) [4]; rate 200 g/ha
  Observed plant damage PHBPU: 95%
Ipomea purpurea (PHBPU) [5]; rate 12.5 g/ha
  Observed plant damage PHBPU: 0%
Ipomea purpurea (PHBPU) [5]; rate 25 g/ha
  Observed plant damage PHBPU: 20%
Ipomea purpurea (PHBPU) [5]; rate 50 g/ha
  Observed plant damage PHBPU: 20%
Ipomea purpurea (PHBPU) [5]; rate 100 g/ha
  Observed plant damage PHBPU: 75%
Ipomea purpurea (PHBPU) [5]; rate 200 g/ha
  Observed plant damage PHBPU: 85%
[6]; rate 12.5 g/ha
  Observed plant damage EPHHL: 0%
[6]; rate 25 g/ha
  Observed plant damage EPHHL: 0%
[6]; rate 50 g/ha
  Observed plant damage EPHHL: 15%
[6]; rate 100 g/ha
  Observed plant damage EPHHL: 40%
[6]; rate 200 g/ha
  Observed plant damage EPHHL: 75%
Maize (ZEAMX) [7]; rate 12.5 g/ha
  Observed plant damage ZEAMX: 0%
Maize (ZEAMX) [7]; rate 25 g/ha
  Observed plant damage ZEAMX: 0%
Maize (ZEAMX) [7]; rate 50 g/ha
  Observed plant damage ZEAMX: 0%
Maize (ZEAMX) [7]; rate 100 g/ha
  Observed plant damage ZEAMX: 0%
Maize (ZEAMX) [7]; rate 200 g/ha
  Observed plant damage ZEAMX: 0%
[8]; rate 12.5 g/ha
  Observed plant damage EPHHL: 0%
[8]; rate 25 g/ha
  Observed plant damage EPHHL: 0%
[8]; rate 50 g/ha
  Observed plant damage EPHHL: 15%
[8]; rate 100 g/ha
  Observed plant damage EPHHL: 35%
[8]; rate 200 g/ha
  Observed plant damage EPHHL: 40%

## COCCOCc1nc(C(F)(F)F)ccc1C(=O)C1C(=O)C2CCC(C2)C1=O (stereo not drawn) [(B1), 4-hydroxy-3-[[2-[(2-methoxyethoxy)methyl]-6-(trifluoromethyl)-3-pyridinyl]carbonyl]-bicyclo[3.2.1]oct-3-en-2-one]
[1]; rate 18.75 g/ha
  Observed plant damage PANMI: 60%
[1]; rate 37.5 g/ha
  Observed plant damage PANMI: 70%
[1]; rate 75 g/ha
  Observed plant damage PANMI: 75%
[1]; rate 150 g/ha
  Observed plant damage PANMI: 70%
[1]; rate 300 g/ha
  Observed plant damage PANMI: 90%
Maize (ZEAMX) [2]; rate 18.75 g/ha
  Observed plant damage ZEAMX: 0%
Maize (ZEAMX) [2]; rate 37.5 g/ha
  Observed plant damage ZEAMX: 0%
Maize (ZEAMX) [2]; rate 75 g/ha
  Observed plant damage ZEAMX: 0%
Maize (ZEAMX) [2]; rate 150 g/ha
  Observed plant damage ZEAMX: 0%
Maize (ZEAMX) [2]; rate 300 g/ha
  Observed plant damage ZEAMX: 0%
Sorghum vulgare (SORVU); rate 18.75 g/ha
  Observed plant damage SORVU: 0%
Sorghum vulgare (SORVU); rate 37.5 g/ha
  Observed plant damage SORVU: 0%
Sorghum vulgare (SORVU); rate 75 g/ha
  Observed plant damage SORVU: 0%
Sorghum vulgare (SORVU); rate 150 g/ha
  Observed plant damage SORVU: 10%
Sorghum vulgare (SORVU); rate 300 g/ha
  Observed plant damage SORVU: 35%
[3]; rate 18.75 g/ha
  Observed plant damage PANMI: 15%
[3]; rate 37.5 g/ha
  Observed plant damage PANMI: 65%
[3]; rate 75 g/ha
  Observed plant damage PANMI: 80%
[3]; rate 150 g/ha
  Observed plant damage PANMI: 100%
[3]; rate 300 g/ha
  Observed plant damage PANMI: 100%
Ipomea purpurea (PHBPU) [4]; rate 18.75 g/ha
  Observed plant damage PHBPU: 0%
Ipomea purpurea (PHBPU) [4]; rate 37.5 g/ha
  Observed plant damage PHBPU: 0%
Ipomea purpurea (PHBPU) [4]; rate 75 g/ha
  Observed plant damage PHBPU: 0%
Ipomea purpurea (PHBPU) [4]; rate 150 g/ha
  Observed plant damage PHBPU: 0%
Ipomea purpurea (PHBPU) [4]; rate 300 g/ha
  Observed plant damage PHBPU: 85%
Ipomea purpurea (PHBPU) [5]; rate 18.75 g/ha
  Observed plant damage PHBPU: 30%
Ipomea purpurea (PHBPU) [5]; rate 37.5 g/ha
  Observed plant damage PHBPU: 50%
Ipomea purpurea (PHBPU) [5]; rate 75 g/ha
  Observed plant damage PHBPU: 55%
Ipomea purpurea (PHBPU) [5]; rate 150 g/ha
  Observed plant damage PHBPU: 70%
Ipomea purpurea (PHBPU) [5]; rate 300 g/ha
  Observed plant damage PHBPU: 70%
[6]; rate 18.75 g/ha
  Observed plant damage EPHHL: 0%
[6]; rate 37.5 g/ha
  Observed plant damage EPHHL: 0%
[6]; rate 75 g/ha
  Observed plant damage EPHHL: 75%
[6]; rate 150 g/ha
  Observed plant damage EPHHL: 75%
[6]; rate 300 g/ha
  Observed plant damage EPHHL: 100%
Maize (ZEAMX) [7]; rate 18.75 g/ha
  Observed plant damage ZEAMX: 0%
Maize (ZEAMX) [7]; rate 37.5 g/ha
  Observed plant damage ZEAMX: 0%
Maize (ZEAMX) [7]; rate 75 g/ha
  Observed plant damage ZEAMX: 0%
Maize (ZEAMX) [7]; rate 150 g/ha
  Observed plant damage ZEAMX: 0%
Maize (ZEAMX) [7]; rate 300 g/ha
  Observed plant damage ZEAMX: 0%
[8]; rate 18.75 g/ha
  Observed plant damage EPHHL: 65%
[8]; rate 37.5 g/ha
  Observed plant damage EPHHL: 80%
[8]; rate 75 g/ha
  Observed plant damage EPHHL: 90%
[8]; rate 150 g/ha
  Observed plant damage EPHHL: 90%
[8]; rate 300 g/ha
  Observed plant damage EPHHL: 98%
